Test results reported in patent publication US11572590B2, “Methods for evaluating tumor cell spheroids using 3D microfluidic cell culture device” (Dana-Farber Cancer Institute, Inc., priority 2017, dated 2023).
Where two headings read alike, the source gives them in different places.

How the values were obtained:
Assay in all cases: SelectScreen Kinase Profiling, single point inhibition and IC50 for off-target kinases
Assay type in all cases: biochemical
[1] = target: off-target kinases (Homo sapiens, UniProt P00519); conditions: ABL1, ATP Km app, ZLYTE
Sequence of off-target kinases (Homo sapiens, UniProt P00519) (P00519 whole entry): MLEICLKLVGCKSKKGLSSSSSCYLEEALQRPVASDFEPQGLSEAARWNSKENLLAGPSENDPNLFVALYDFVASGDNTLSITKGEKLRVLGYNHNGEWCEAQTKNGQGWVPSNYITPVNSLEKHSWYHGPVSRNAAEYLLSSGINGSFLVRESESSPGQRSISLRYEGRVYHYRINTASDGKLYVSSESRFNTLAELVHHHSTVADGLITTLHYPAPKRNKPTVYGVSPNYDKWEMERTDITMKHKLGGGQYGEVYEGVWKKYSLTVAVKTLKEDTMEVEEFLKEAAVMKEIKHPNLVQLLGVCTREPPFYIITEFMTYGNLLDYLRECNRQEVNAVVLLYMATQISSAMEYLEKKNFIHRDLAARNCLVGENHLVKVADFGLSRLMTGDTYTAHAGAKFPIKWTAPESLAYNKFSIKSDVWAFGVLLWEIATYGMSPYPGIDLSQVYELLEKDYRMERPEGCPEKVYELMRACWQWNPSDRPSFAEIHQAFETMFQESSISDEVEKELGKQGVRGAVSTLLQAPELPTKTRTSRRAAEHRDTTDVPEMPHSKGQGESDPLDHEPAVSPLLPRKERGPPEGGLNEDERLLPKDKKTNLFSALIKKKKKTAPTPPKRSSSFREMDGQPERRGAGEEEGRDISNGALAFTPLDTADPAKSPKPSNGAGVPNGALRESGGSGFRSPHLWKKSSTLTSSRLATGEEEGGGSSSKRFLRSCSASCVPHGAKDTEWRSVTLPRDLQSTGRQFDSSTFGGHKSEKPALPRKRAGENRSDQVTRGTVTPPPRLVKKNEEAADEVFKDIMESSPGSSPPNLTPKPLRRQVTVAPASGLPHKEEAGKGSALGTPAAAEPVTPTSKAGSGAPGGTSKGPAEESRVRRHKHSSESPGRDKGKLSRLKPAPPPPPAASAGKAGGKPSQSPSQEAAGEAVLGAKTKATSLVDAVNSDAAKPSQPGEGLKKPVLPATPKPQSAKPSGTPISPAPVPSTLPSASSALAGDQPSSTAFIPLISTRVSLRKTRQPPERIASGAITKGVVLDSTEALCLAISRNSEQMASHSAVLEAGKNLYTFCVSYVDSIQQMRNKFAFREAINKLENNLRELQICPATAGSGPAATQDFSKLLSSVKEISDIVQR

[2] = target: off-target kinases (Homo sapiens, UniProt P22607, K650E); conditions: FGFR3 K650E (mutant), ZLYTE, ATP Km app
[3] = target: off-target kinases (Homo sapiens, UniProt P78362); conditions: SRPK2; Cmpd1 1000 μM; ATP Km app; ZLYTE
[4] = target: off-target kinases (Homo sapiens, UniProt Q16584); conditions: MAP3K11 (MLK3), LanthaScreen Binding
Sequence of off-target kinases (Homo sapiens, UniProt Q16584) (Q16584 whole entry): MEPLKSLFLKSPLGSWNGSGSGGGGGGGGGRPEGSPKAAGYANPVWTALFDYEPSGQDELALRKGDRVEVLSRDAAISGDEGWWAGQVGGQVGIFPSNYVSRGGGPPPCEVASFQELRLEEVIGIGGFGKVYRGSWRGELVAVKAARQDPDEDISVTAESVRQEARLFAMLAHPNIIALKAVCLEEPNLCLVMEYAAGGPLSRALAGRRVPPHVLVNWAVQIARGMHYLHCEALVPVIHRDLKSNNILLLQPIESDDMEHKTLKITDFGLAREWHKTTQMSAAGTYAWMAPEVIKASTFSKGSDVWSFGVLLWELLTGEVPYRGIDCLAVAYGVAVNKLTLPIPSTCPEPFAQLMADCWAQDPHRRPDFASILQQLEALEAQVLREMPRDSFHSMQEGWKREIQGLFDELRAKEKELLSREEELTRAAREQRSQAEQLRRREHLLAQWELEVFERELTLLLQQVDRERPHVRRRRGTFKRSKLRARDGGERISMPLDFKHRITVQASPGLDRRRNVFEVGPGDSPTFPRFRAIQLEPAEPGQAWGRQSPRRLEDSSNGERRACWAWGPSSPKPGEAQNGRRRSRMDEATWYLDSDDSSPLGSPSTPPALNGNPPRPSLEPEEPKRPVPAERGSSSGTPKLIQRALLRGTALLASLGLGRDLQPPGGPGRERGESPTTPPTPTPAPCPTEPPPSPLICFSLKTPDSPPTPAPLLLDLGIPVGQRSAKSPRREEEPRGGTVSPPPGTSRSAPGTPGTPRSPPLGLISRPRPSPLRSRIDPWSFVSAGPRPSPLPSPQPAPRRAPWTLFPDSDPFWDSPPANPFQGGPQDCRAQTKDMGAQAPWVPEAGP

[5] = target: off-target kinases (Homo sapiens, UniProt Q9HAZ1); conditions: CLK4, LanthaScreen Binding
Sequence of off-target kinases (Homo sapiens, UniProt Q9HAZ1) (Q9HAZ1 whole entry): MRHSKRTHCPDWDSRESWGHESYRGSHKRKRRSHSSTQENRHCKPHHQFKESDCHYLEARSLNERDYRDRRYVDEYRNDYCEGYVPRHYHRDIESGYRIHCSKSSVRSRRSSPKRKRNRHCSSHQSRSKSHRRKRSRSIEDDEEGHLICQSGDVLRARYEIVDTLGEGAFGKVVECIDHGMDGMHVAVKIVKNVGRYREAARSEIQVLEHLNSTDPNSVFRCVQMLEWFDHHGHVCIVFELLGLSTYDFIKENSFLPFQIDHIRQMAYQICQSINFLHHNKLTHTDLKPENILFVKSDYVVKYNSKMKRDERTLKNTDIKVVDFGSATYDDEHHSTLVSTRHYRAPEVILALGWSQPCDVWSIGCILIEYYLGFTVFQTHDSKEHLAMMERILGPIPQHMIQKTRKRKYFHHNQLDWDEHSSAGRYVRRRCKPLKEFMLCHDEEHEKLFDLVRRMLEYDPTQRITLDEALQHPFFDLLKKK

[6] = target: off-target kinases (Homo sapiens, UniProt Q9NYY3); conditions: PLK2, ATP Km app, ZLYTE
[7] = target: off-target kinases (Homo sapiens, UniProt Q9Y3S1); conditions: WNK2, LanthaScreen Binding
Sequence of off-target kinases (Homo sapiens, UniProt Q9Y3S1) (Q9Y3S1 whole entry): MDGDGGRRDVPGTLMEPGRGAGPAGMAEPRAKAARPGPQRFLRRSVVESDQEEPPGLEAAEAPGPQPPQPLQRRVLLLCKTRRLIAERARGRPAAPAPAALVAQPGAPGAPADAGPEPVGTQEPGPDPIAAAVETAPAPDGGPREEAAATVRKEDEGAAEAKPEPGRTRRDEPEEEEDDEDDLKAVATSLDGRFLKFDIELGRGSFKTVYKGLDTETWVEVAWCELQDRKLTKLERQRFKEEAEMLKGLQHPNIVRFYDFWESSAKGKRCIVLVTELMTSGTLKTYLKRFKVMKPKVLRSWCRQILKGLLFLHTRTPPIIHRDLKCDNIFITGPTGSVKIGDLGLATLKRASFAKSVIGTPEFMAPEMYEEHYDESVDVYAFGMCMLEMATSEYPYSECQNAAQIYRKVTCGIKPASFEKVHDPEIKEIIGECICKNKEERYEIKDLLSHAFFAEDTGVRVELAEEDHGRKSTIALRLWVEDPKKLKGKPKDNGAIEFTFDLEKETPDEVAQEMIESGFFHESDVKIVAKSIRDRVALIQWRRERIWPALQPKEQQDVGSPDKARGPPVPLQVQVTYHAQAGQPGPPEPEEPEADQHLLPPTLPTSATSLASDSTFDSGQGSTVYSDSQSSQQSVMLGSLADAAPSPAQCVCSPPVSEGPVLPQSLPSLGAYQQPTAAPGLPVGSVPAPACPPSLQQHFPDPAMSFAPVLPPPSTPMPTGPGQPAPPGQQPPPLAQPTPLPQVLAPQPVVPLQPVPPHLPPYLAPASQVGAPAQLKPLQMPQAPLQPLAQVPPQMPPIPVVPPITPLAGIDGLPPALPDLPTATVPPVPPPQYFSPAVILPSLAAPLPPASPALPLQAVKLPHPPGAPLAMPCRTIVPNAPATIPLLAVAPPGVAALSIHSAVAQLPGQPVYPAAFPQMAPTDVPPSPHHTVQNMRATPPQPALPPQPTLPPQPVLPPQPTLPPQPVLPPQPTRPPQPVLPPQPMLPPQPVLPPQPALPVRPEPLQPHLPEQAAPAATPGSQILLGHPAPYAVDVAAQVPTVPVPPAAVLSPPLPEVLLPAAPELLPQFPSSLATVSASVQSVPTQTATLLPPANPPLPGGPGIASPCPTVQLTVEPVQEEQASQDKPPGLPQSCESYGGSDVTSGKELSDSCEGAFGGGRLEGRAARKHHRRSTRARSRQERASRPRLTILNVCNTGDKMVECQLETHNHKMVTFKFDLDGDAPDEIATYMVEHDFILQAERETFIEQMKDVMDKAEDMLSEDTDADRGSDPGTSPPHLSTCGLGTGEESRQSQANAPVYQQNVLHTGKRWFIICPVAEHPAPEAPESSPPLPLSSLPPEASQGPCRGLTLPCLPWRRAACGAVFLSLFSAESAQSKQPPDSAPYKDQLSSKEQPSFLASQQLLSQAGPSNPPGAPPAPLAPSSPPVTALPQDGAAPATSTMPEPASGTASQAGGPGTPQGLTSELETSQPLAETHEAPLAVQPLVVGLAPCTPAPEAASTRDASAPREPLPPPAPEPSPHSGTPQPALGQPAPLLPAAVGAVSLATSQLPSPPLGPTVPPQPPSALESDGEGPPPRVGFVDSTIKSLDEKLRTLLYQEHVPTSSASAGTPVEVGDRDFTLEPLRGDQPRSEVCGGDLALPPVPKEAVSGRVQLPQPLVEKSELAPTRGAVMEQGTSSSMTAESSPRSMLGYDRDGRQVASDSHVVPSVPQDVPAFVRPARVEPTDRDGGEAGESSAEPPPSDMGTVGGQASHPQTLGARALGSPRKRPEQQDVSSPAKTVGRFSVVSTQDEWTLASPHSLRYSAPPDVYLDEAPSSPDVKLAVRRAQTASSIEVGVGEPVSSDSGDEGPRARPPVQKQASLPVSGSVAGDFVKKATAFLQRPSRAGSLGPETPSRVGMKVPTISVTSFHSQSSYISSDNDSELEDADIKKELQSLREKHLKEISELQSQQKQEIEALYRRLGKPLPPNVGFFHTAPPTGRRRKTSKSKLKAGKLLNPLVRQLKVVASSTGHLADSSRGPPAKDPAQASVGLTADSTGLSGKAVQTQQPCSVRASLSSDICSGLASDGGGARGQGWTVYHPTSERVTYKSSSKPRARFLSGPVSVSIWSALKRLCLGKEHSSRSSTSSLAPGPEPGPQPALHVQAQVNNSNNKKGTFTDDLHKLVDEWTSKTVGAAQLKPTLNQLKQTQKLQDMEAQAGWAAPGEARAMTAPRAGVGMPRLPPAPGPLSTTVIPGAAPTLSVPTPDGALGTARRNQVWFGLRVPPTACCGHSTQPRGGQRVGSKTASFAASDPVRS

[8] = target: off-target kinases (Homo sapiens, UniProt Q9Y6E0); conditions: STK24 (MST3), ZLYTE, ATP Km app

Question: N#Cc1cc(-c2ncnc(Nc3ccc(N4CCN(C5COC5)CC4)cc3)n2)ccc1OC1CCOCC1 [Compound 1, 5-(4-((4-(4-(oxetan-3-yl)piperazin-1-yl)phenyl)amino)-1,3,5-triazin-2-yl)-2-((tetrahydro-2H-pyran-4-yl)oxy)benzonitrile] was tested. Which inhibition ([1]; read-out: % Inhibition 1) did it give?
Answer: The inhibition was 48%.

Question: What about the inhibition ([1]; read-out: % Inhibition 2) of the same compound?
Answer: Its inhibition is 51%.

Question: What about the inhibition ([1]; read-out: % Inhibition Avg) of the same compound?
Answer: The inhibition was 49%.

Question: What about the inhibition ([2]; read-out: % Inhibition 1) of the same compound?
Answer: The inhibition was 11%.

Question: And the inhibition ([2]; read-out: % Inhibition 2)?
Answer: The inhibition was 6%.

Question: And the inhibition ([2]; read-out: % Inhibition Avg)?
Answer: Its inhibition is 8%.

Question: What about the “% Inhibition 1” value [3] of the same compound?
Answer: The value was −2%.

Question: And the “% Inhibition 2” value [3]?
Answer: Its value is −4%.

Question: And the “% Inhibition Avg” value [3]?
Answer: Its value is −3%.

Question: What about the inhibition ([4]; read-out: % Inhibition 1) of the same compound?
Answer: Its inhibition is 24%.

Question: What about the inhibition ([4]; read-out: % Inhibition 2) of the same compound?
Answer: Its inhibition is 29%.

Question: What about the inhibition ([4]; read-out: % Inhibition Avg) of the same compound?
Answer: The inhibition was 26%.

Question: And the inhibition ([5]; read-out: % Inhibition 1)?
Answer: Its inhibition is 87%.

Question: What about the inhibition ([5]; read-out: % Inhibition 2) of the same compound?
Answer: Its inhibition is 89%.

Question: And the inhibition ([5]; read-out: % Inhibition Avg)?
Answer: Its inhibition is 88%.

Question: And the inhibition ([6]; read-out: % Inhibition 1)?
Answer: Its inhibition is 60%.

Question: And the inhibition ([6]; read-out: % Inhibition 2)?
Answer: The inhibition was 64%.

Question: And the inhibition ([6]; read-out: % Inhibition Avg)?
Answer: Its inhibition is 62%.

Question: What about the inhibition ([7]; read-out: % Inhibition 1) of the same compound?
Answer: Its inhibition is -4%.

Question: What about the inhibition ([7]; read-out: % Inhibition 2) of the same compound?
Answer: The inhibition was 5%.

Question: What about the inhibition ([7]; read-out: % Inhibition Avg) of the same compound?
Answer: The inhibition was 1%.

Question: What about the inhibition ([8]; read-out: % Inhibition 1) of the same compound?
Answer: The inhibition was -5%.

Question: And the inhibition ([8]; read-out: % Inhibition 2)?
Answer: The inhibition was 8%.

Question: And the inhibition ([8]; read-out: % Inhibition Avg)?
Answer: The inhibition was 1%.
